Results as given in US20070092444A1, “Inhibition of inward sodium currents in cancer” (priority 2003, published 2007).

Tests used:
ASIC1 = target: T1, ASIC1 (Homo sapiens, UniProt P78348); assay: Wild-type ASIC1 in planar lipid bilayers, single channel recording; type: biochemical; details: amiloride; bilayers
T1 sequence (P78348 1-528): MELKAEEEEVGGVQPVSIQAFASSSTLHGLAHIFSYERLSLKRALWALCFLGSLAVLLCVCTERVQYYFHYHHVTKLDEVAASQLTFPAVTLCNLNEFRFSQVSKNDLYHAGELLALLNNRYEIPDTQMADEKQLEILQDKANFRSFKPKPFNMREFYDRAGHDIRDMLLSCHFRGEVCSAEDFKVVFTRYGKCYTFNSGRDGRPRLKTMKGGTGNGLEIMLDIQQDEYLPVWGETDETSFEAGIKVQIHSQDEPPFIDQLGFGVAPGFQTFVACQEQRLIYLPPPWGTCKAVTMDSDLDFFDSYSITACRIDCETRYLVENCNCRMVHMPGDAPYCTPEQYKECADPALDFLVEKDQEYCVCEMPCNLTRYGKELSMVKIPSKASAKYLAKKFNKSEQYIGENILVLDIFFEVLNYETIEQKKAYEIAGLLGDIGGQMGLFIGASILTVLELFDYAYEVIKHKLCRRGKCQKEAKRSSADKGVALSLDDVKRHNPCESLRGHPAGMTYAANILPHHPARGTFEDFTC
Method: An expanded time scale is shown below each trace.
Wild-type ASIC1 incorporated into planar lipid bilayers at neutral pH or at acidic extracellular pH was also examined.
(§1) Membrane potential was held at −60 mV, and the pHo was step decreased to 4.0 for 10 s, and then returned to 7.4 for 30 s before repeating the sequence.
Control single channel were record for ASIC1 containing channels in bilayers bathed with symmetrical 100 mM NaCl, 10 mM MOPS, pH 6.2. Holding potential was +100 mV referred to the virtually grounded trans chamber. For illustration purposes, data shown were digitally filtered at 100 Hz using pCLAMP software (Axon Instruments) subsequent to acquisition of the analog signal filtered at 300 Hz with an 8-pole Bessel filter before acquisition at 1 ms per point. An expanded time scale is shown below each trace (FIG. 21).
Representative dwell-time histograms were constructed following the events analyses performed using pCLAMP software (Axon Instruments) on single channel recordings of 10 min in duration filtered at 300 Hz with an 8-pole Bessel filter before acquisition at 1 ms per point using pCLAMP software and hardware. The event detection thresholds were 50% in amplitude of transition between closed and open states, and 3 ms in duration. Closed and open time constants shown were determined by fitting the closed and open time histograms to the probability density function (Sigworth and Sine, 1987), and using the Simplex least square routine of pSTAT. Number of bins per decade in all histograms was 16.

[1] = test system: ASIC containing channel activity in U87-MG cells; assay: Single channel recording, outside-out patches from U87-MG cells; type: cell-based, human; details: 100 μM amiloride
Method: FIGS. 23A and B show single channel records of ASIC-containing channel activity in cell attached (FIG. 23A) and outside-out patches (FIG. 23B) from U87-MG cells.
Single channel recording of ASIC containing channel activity in both cell-attached and outside-out patches from U-87MG cells are shown in FIGS. 23A and B, respectively. For cell-attached patches, the pipette solution contained RPMI 1640, matching the external bath solution used for all whole-cell clamped records. For outside-out patches the pipette solution contained (in mM) K-gluconate, 100; KCl, 30; NaCl, 10; HEPES, 20; EGTA, 0.5; ATP, 4; pH 7.2. Membrane potentials for cell-attached patches were determined as the applied potential plus the membrane potential of the cell that was measured in the whole-cell configuration as −60 mV using the pipette solution for outside-out patches. The membrane potential for outside-out patches was the equilibrium potential for sodium plus the applied potential. The average single channel conductance in the cell-attached configuration was 5.7±0.5 pS. This average conductance was calculated from each of the clamp potentials. This was compatible with the observed whole-cell currents. The kinetics of channel opening and closing were relatively slow (on the order of 0.1 to 1 s), consistent to what has been observed for ASIC-like channels in bilayers (FIG. 23A).

primary human astrocytes = assay: Transwell Migration Assay, primary human astrocytes; type: cell-based
Method: (§2) Approximately 10,000 cells were added to the upper side of a filter insert perforated with 5-8 μm holes, and induced to migrate through these pores toward the extracellular matrix protein vitronectin (coated on the underside of the filter). PcTX1 or control scrambled PcTX1 peptide was added to each compartment at the same time as the cells. BSA-coated filter inserts were used as negative controls. After 3 h, cells were fixed with 4% paraformaldehyde, and subsequently stained with crystal violet. Cells were counted on an inverted microscope, averaging five fields per Transwell chamber. Four-to-ten chambers were used under each condition.

U87-MG cells = assay: Regulatory volume increase after osmotic shrinkage, Coulter counter; type: cell-based, human; details: 80 nM PcTX1; 450 mOsM/kg
Method: U87-MG cells were mechanically dispersed, washed, and resuspended in PBS. At t=2-3 min, the osmolality of the bathing medium was increased to 450 mOsM/kg by the addition of NaCl from a 3M stock solution.

primary GBM cultures = assay: Transwell Migration Assay, primary GBM cultures; type: cell-based, human; details: 3 h, vitronectin
Method: as §2

ASIC2 = target: T2, ASIC2 (Homo sapiens, UniProt Q16515); assay: ASIC2 in planar lipid bilayers; type: biochemical
T2 sequence (Q16515 1-512): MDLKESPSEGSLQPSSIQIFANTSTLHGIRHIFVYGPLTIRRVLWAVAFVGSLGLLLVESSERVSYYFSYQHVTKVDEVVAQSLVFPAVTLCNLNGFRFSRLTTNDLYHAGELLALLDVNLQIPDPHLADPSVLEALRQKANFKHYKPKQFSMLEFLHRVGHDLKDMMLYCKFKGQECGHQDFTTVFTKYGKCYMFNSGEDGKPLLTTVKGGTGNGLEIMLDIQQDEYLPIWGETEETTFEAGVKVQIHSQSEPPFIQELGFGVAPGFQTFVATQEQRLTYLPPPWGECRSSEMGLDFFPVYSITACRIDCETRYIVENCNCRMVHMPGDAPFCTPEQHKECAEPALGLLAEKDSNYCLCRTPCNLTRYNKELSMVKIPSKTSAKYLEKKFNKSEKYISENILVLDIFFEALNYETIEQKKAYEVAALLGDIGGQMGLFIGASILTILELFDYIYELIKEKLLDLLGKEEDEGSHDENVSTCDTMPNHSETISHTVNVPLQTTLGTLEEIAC
Source text: as §1

Row | Molecule | kind of channel block (ASIC1) | inhibition of channels [1] | effect on Transwell migration (primary human astrocytes) | volume recovery after shrinkage (U87-MG cells) | diminished ability to migrate through the filter (primary GBM cultures) | block of inward currents (ASIC2)
1 | N=C(N)NC(=O)c1nc(Cl)c(N)nc1N [amiloride] | flickery-block | completely inhibited |  |  |  | 
2 | Psalmotoxin 1 [PcTX1] |  |  | no effect | effectively prevented | > 90% | not ASIC2
